Assay results taken from paper PMC11370260 (Microbiology Spectrum, 2024).

Columns and labels:
[1] = system: constitutive aphA-3-lacZ reporter; experiment: E. coli constitutive aphA-3-lacZ reporter (pVT19), LasR reporter conditions; assay type: cell-based; details: Escherichia coli, read-out: IC50 ± CI, Constitutive reporter
Description: (§1) To characterize compounds for their potential activity as LasR antagonists, we used heterologous E. coli, which enables LasR to be isolated from other host regulation effects. We used an E. coli strain expressing LasR from an arabinose-inducible promoter (Para-lasR) on plasmid pJN105-L and a second plasmid with the LasR-inducible lasI promoter fused to a promoterless lacZ reporter (PlasI-lacZ) on plasmid pSC11-L (Fig. 2A). […] As a control, we also constructed an E. coli strain carrying a plasmid with lacZ expressed from the constitutive aphA-3 promoter ([29], [30]), pVT19.
(§2) To assess LasR activation of lasR expression in recombinant E. coli, we used E. coli strain DH5α carrying two plasmids; plasmid pJN105-L ([50]) with an arabinose-inducible P. aeruginosa lasR and plasmid pSC11-L ([51]) with the promoter of the LasR-responsive gene lasI fused to a lacZ reporter. For some studies, pJN105-L was replaced with derivatives of this plasmid encoding LasR mutants with single amino acid substitutions ([33]). To assess RhlR activation of rhlR expression in recombinant E. coli, we used E. coli DH5α with plasmid pECP61.5 ([38]) with an IPTG-inducible ptac-rhlR and an RhlR-responsive gene rhlA fused to the lacZ reporter. For constitutive expression of the lacZ reporter, we used E. coli DH5α with plasmid pVT19, which has the lacZ gene fused to the constitutive aphA-3 promoter. To construct pVT19, the constitutive aphA-3 promoter ([29], [30]) was amplified from a pTCV-lac derivative using primers Vlac1 and Vlac2 ([30]). The resulting amplicon was digested with EcoRI and BamHI and ligated into similarly digested pKS12A ([52]). The resulting plasmid with the aphA-3 promoter transcriptionally fused to lacZ was designated pVT19. For constitutive expression of the gfp reporter, we used E. coli DH5α with plasmid pUC18T-mini-Tn7T-Gm-gfpmut3 ([53]).
(§3) To assess LasR activation of lasR expression in recombinant E. coli, overnight cultures of E. coli DH5α pSC11-L and pJN105-L were diluted 1:100 into LB containing selection antibiotics gentamicin and ampicillin in 10 mL cultures. When the cultures reached an OD600 of 0.2–0.3, L-(+)-arabinose was added to a final concentration of 0.25%. […] Aliquots (5 µL) of increasing concentrations of inhibitor test compound stock solution in DMSO were then added to the designated micro centrifuge tubes containing culture. Tubes containing E. coli with just signal and DMSO were included as controls. After 3 h at 37°C with shaking, OD600 was measured using a plate reader, and β-galactosidase activity was measured as described above.
(§4) Experiments with the LasR mutants and the constitutive lacZ expression plasmid pVT19 or constitutive gfp expression plasmid pUC18T-mini-Tn7T-Gm-gfpmut3 were carried out identically as described above for the LasR or RhlR bioreporter experiments. Results with the […] constitutive reporter strain were different for the LasR vs RhlR bioreporter protocols likely due to differences in growth conditions (temperature and/or growth media).

[2] = system: constitutive aphA-3-lacZ reporter; experiment: E. coli constitutive aphA-3-lacZ reporter (pVT19), RhlR reporter conditions; assay type: cell-based, Escherichia coli; details: for IC50: Escherichia coli
Description: (§5) To test the ability of our set of benzaldehydes and related compounds to antagonize RhlR, we generated dose-response curves with these compounds using an E. coli RhlR reporter strain (Fig. 6; Table 2). This strain is analogous to the LasR reporter above, but it carries plasmid pECP61.5 expressing RhlR from the isopropyl β-D-1-thiogalactopyranoside (IPTG)-inducible […] promoter as well as the rhlA-lacZ reporter ([38]). We also utilized our constitutive lacZ reporter plasmid pVT19 to generate dose-response curves using the RhlR assay conditions (Fig. 6; Table 2). […] With the constitutive lacZ reporter, there was a similar spread in potencies for our compounds, with ortho-vanillin having the lowest IC50 and salicylic acid as the highest. However, the IC50 for ortho-vanillin was fivefold lower with RhlR than with the constitutive lacZ reporter. There were also no observed effects of ortho-vanillin on growth until concentrations at which there was >50% antagonism of the RhlR reporter, and there was no antagonism of the constitutive lacZ reporter until concentrations >500 µM.
as §2
(§6) To assess RhlR activation of rhlR expression in recombinant E. coli, overnight cultures of E. coli DH5α pECP61.5 grown at 30°C in A medium containing antibiotic selection (ampicillin) and IPTG to induce RhlR expression were diluted to an OD600 of 0.1, and 1 mL was added to culture tubes containing dried C4-HSL. Aliquots (5 µL) of DMSO containing increasing concentrations of inhibitor test compound or DMSO with no test compound were added to the designated Eppendorf tubes containing culture. Tubes containing E. coli with signal and DMSO were included as vehicle control. After 5 h at 30°C with shaking, OD600 was measured using a plate reader, and β-galactosidase activity was measured as described above.
as §4

LasR = target: T1, LasR (Pseudomonas aeruginosa, UniProt P25084); experiment: E. coli LasR bioreporter (Para-lasR, PlasI-lacZ), β-galactosidase readout; assay type: cell-based; details: for IC50: IC50 ± CI, LasR reporter, competed against 100 nM 3OC12-HSL, 95% confidence interval in parentheses; for fold lower concentration inhibiting LasR-specific reporter than constitutive reporter: IC50 constitutive reporter vs LasR reporter
T1 construct: expressed in transfected cells; host or cells: E. coli DH5α carrying pJN105-L and pSC11-L
Description: as §1, §2, §3

RhlR = target: T2, RhlR (Pseudomonas aeruginosa, UniProt P54292); experiment: E. coli RhlR bioreporter (pECP61.5, rhlA-lacZ), β-galactosidase readout; assay type: cell-based
T2 construct: expressed in transfected cells; host or cells: E. coli DH5α carrying pECP61.5
Description: as §5, §2, §6

E. coli = experiment: Growth (OD600) of E. coli reporter strain, LasR reporter conditions; assay type: cell-based, Escherichia coli; details: at the highest concentrations
Experimental: as §3

[3] = system: constitutive GFP reporter; experiment: E. coli constitutive GFP reporter (pUC18T-mini-Tn7T-Gm-gfpmut3); assay type: cell-based, Escherichia coli
Description: To test whether these effects were specific to the lacZ reporter or general to other reporters, we generated an orsellinaldehyde dose-response curve using a strain constitutively expressing GFP (E. coli carrying a constitutive GFP-producing plasmid pUC18T-mini-Tn7T-Gm-gfpmut3).
as §2, with “The resulting plasmid with the aphA-3 promoter transcriptionally fused to lacZ was designated pVT19. For constitutive expression of the gfp reporter, we used E. coli DH5α with plasmid pUC18T-mini-Tn7T-Gm-gfpmut3 ([53]).” left out

LasR mutants [4] = target: T3, LasR mutants (Pseudomonas aeruginosa, UniProt P25084, S129A); experiment: E. coli LasR mutant lasI-lacZ reporters (W60F, Y56F, T75V, Y93F, S129A); assay type: cell-based; details: S129A mutant
T3 construct: expressed in transfected cells; host or cells: E. coli DH5α carrying pSC11-L and a pJN105-L mutant analog (pJG044, pJG008, pJG011, pJG012 or pJG014)
Description: (§7) To examine these putative interactions between ortho-vanillin and LasR, we determined the activity of ortho-vanillin in several LasR mutants. In prior studies in our laboratories, a set of LasR mutants were generated in which residues within the ligand-binding pocket were mutated to a different residue of similar steric size but without the capability to hydrogen bond (e.g., Tyr → Phe). These mutants were introduced into E. coli to generate lasI-lacZ reporters analogous to the wild-type LasR reporter above (see Table S1 and Materials and Methods). From that set, we selected five LasR mutant reporters to test ortho-vanillin (W60F, Y56F, T75V, Y93F, and S129A), which included the Thr75 and Ser129 residues predicted to be important for ortho-vanillin interaction in our in silico study. […] As a control, we also tested the ability of V-06–018 to antagonize the LasR S129A mutant. We used the same approach to test the ability of […] to antagonize LasR and the LasR S129A mutant. […] Results from one of the concentrations (100 µM) are shown instead.
as §2, with “The resulting amplicon was digested with EcoRI and BamHI and ligated into similarly digested pKS12A ([52]). The resulting plasmid with the aphA-3 promoter transcriptionally fused to lacZ was designated pVT19. For constitutive expression of the gfp reporter, we used E. coli DH5α with plasmid pUC18T-mini-Tn7T-Gm-gfpmut3 ([53]).” left out

LasR mutants [5] = experiment: as above; assay type: cell-based, Pseudomonas aeruginosa; details: W60F, Y56F, T75V, Y93F, S129A; competed against 3OC12-HSL at EC50 of each mutant
Description: as §7
as §2, with “The resulting amplicon was digested with EcoRI and BamHI and ligated into similarly digested pKS12A ([52]). The resulting plasmid with the aphA-3 promoter transcriptionally fused to lacZ was designated pVT19. For constitutive expression of the gfp reporter, we used E. coli DH5α with plasmid pUC18T-mini-Tn7T-Gm-gfpmut3 ([53]).” left out

[6] = read-out: IC50 ± CI, Constitutive reporter
[7] = IC50 ± CI, RhlR reporter, competed against 400 nM C4-HSL, 95% confidence interval in parentheses

T1 sequence (P25084 whole entry): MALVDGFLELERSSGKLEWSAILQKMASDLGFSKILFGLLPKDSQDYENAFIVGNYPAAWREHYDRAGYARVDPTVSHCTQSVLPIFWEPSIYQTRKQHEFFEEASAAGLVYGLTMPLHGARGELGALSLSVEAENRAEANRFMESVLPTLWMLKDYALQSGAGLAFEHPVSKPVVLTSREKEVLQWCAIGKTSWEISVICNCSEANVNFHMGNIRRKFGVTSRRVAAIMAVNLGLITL
T2 sequence (P54292 whole entry): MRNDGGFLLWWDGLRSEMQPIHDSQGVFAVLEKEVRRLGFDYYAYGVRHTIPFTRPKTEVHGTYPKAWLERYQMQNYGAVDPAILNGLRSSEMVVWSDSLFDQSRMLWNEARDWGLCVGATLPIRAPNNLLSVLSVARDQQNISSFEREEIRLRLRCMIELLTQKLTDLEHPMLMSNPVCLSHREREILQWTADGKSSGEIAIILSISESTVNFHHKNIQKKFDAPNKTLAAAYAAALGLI
T3 sequence (P25084 whole entry S129A): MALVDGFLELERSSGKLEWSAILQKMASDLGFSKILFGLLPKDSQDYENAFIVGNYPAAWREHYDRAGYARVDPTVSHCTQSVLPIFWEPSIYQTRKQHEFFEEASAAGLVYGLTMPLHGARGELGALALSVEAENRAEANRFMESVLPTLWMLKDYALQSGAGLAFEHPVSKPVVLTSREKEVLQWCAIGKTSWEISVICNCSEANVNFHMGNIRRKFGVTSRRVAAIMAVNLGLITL

Row | SMILES | IC50 [1] [mM] | IC50 [2, 6] [mM] | IC50 (LasR) [mM] | IC50 (RhlR; [7]) [mM] | further results
1 | O=C/C=C/c1ccccc1 [Cinnamaldehyde] | 1.46 | 2.85 | 0.851 | 1.31 | 
2 | O=C(O)c1ccccc1O [Salicylic acid, reference compound] | 3.65 | 6.26 |  | 10 | IC50 (RhlR; IC50, RhlR reporter, competed against C4-HSL): ~10 mM
3 | Cc1cc(O)cc(O)c1C=O [Orsellinaldehyde] | 2.31 | 2.75 | 2.37 | 0.956 | reduction of growth yield (E. coli): 10%–20%; calculated LD50 of orsellinaldehyde with GFP ([3]; E. coli constitutive GFP reporter, Fig. S1 legend): 1057 µM; IC50 ([3]; Escherichia coli, read-out: IC50, constitutive GFP reporter): 1.06 mM
4 | CCCCCCCCCC(=O)CC(=O)Nc1ccccc1 [V-06–018] |  |  |  |  | antagonism of LasR S129A mutant compared with wild-type LasR (LasR mutants [4]; competed against 3OC12-HSL at its EC50): significantly less active; IC50, LasR S129A mutant (LasR mutants [4]; insufficient antagonism): could not be determined
5 | COc1cccc(C=O)c1O [ortho-Vanillin] | 1.26 | 0.872 | 0.437 | 0.151 | antagonism of LasR mutants compared with wild-type LasR (LasR mutants [5]): indistinguishable from that of the wild-type LasR; IC50 ([2]; read-out: IC50, Constitutive reporter, Hill slope set at 1.0): 0.774 mM; concentration until which there was no antagonism of the constitutive lacZ reporter ([2]; RhlR reporter conditions): > 500 µM; difference in IC50 with varying 3OC12-HSL concentration (competition test) (LasR; 3OC12-HSL at […] nM, 1 µM and 10 µM, P > 0.07): not significant; fold lower concentration inhibiting LasR-specific reporter than constitutive reporter (LasR): threefold; change in potency with varying C4-HSL concentration (competition test) (RhlR; C4-HSL at 400 nM, 10 µM and 100 µM): significant C4-HSL concentration-dependent decrease in the potency; fold lower IC50 with RhlR than with constitutive lacZ reporter (RhlR; IC50 constitutive lacZ reporter vs RhlR reporter): fivefold
6 | Cc1ccc(O)c(C=O)c1 [2-hydroxy-5-methylbenzaldehyde] | 2.02 | 1.79 | 1.5 | 1.08 | fold lower concentration inhibiting LasR-specific reporter than constitutive reporter (LasR): 1.3 fold
7 | COc1ccc(C=O)c(O)c1 [2-hydroxy-4-methoxybenzaldehyde] | 1.95 | 1.36 | 1.04 | 0.458 | 
